Data from the NIST ThermoML archive (doi:10.1021/je700640r).
Numbers after ± are expanded uncertainties.

experiment: activity coefficient (dimensionless); of the first substance listed, at infinite dilution; xn = mol fraction of the nth substance listed; conditions: 303.15 K; Liquid; Chromatography; x1 = 0

SMILES | activity coefficient
CC#N [acetonitrile] + CCC[n+]1ccn(C)c1C.F[B-](F)(F)F | 1.4 ± 0.12
CCCO [propan-1-ol] + CCC[n+]1ccn(C)c1C.F[B-](F)(F)F | 3.26 ± 0.28
CO [methanol] + CCC[n+]1ccn(C)c1C.F[B-](F)(F)F | 0.898 ± 0.074
CCCCO [butan-1-ol] + CCC[n+]1ccn(C)c1C.F[B-](F)(F)F | 5.05 ± 0.44
C1CCOC1 [tetrahydrofuran] + CCC[n+]1ccn(C)c1C.F[B-](F)(F)F | 6.03 ± 0.52
CCC(C)O (stereo not drawn) [butan-2-ol] + CCC[n+]1ccn(C)c1C.F[B-](F)(F)F | 4.28 ± 0.37
CC(C)O [propan-2-ol] + CCC[n+]1ccn(C)c1C.F[B-](F)(F)F | 2.62 ± 0.23
ClCCl [dichloromethane] + CCC[n+]1ccn(C)c1C.F[B-](F)(F)F | 1.67 ± 0.14
C1COCCO1 [1,4-dioxane] + CCC[n+]1ccn(C)c1C.F[B-](F)(F)F | 2.96 ± 0.26
CC(C)=O [acetone] + CCC[n+]1ccn(C)c1C.F[B-](F)(F)F | 2.47 ± 0.21
ClC(Cl)(Cl)Cl [tetrachloromethane] + CCC[n+]1ccn(C)c1C.F[B-](F)(F)F | 8.11 ± 0.7
ClC(Cl)Cl [trichloromethane] + CCC[n+]1ccn(C)c1C.F[B-](F)(F)F | 1.14 ± 0.094
CCOC(C)=O [ethyl acetate] + CCC[n+]1ccn(C)c1C.F[B-](F)(F)F | 8.86 ± 0.77
CCO [ethanol] + CCC[n+]1ccn(C)c1C.F[B-](F)(F)F | 1.86 ± 0.16
CC(C)CO [2-methyl-1-propanol] + CCC[n+]1ccn(C)c1C.F[B-](F)(F)F | 4.17 ± 0.36

same assay, conditions: 313.15 K; Liquid; Chromatography; x1 = 0

SMILES | activity coefficient
CC#N [acetonitrile] + CCC[n+]1ccn(C)c1C.F[B-](F)(F)F | 1.39 ± 0.12
CCCO [propan-1-ol] + CCC[n+]1ccn(C)c1C.F[B-](F)(F)F | 3.01 ± 0.26
CO [methanol] + CCC[n+]1ccn(C)c1C.F[B-](F)(F)F | 0.869 ± 0.072
CCCCCO [pentan-1-ol] + CCC[n+]1ccn(C)c1C.F[B-](F)(F)F | 6.2 ± 0.54
CCCCO [butan-1-ol] + CCC[n+]1ccn(C)c1C.F[B-](F)(F)F | 4.67 ± 0.4
C1CCOC1 [tetrahydrofuran] + CCC[n+]1ccn(C)c1C.F[B-](F)(F)F | 5.98 ± 0.52
CCC(C)O (stereo not drawn) [butan-2-ol] + CCC[n+]1ccn(C)c1C.F[B-](F)(F)F | 3.99 ± 0.34
CC(C)O [propan-2-ol] + CCC[n+]1ccn(C)c1C.F[B-](F)(F)F | 2.53 ± 0.22
ClCCl [dichloromethane] + CCC[n+]1ccn(C)c1C.F[B-](F)(F)F | 1.74 ± 0.15
CC(C)CCO [3-methylbutan-1-ol] + CCC[n+]1ccn(C)c1C.F[B-](F)(F)F | 4.91 ± 0.42
C1COCCO1 [1,4-dioxane] + CCC[n+]1ccn(C)c1C.F[B-](F)(F)F | 3.08 ± 0.27
CC(C)=O [acetone] + CCC[n+]1ccn(C)c1C.F[B-](F)(F)F | 2.53 ± 0.22
ClC(Cl)(Cl)Cl [tetrachloromethane] + CCC[n+]1ccn(C)c1C.F[B-](F)(F)F | 8.63 ± 0.74
ClC(Cl)Cl [trichloromethane] + CCC[n+]1ccn(C)c1C.F[B-](F)(F)F | 1.29 ± 0.11
CCOC(C)=O [ethyl acetate] + CCC[n+]1ccn(C)c1C.F[B-](F)(F)F | 8.84 ± 0.76
CCO [ethanol] + CCC[n+]1ccn(C)c1C.F[B-](F)(F)F | 1.68 ± 0.14
CC(C)CO [2-methyl-1-propanol] + CCC[n+]1ccn(C)c1C.F[B-](F)(F)F | 3.87 ± 0.33

same assay, conditions: 323.15 K; Liquid; Chromatography; x1 = 0

SMILES | activity coefficient
CC#N [acetonitrile] + CCC[n+]1ccn(C)c1C.F[B-](F)(F)F | 1.38 ± 0.12
CCCO [propan-1-ol] + CCC[n+]1ccn(C)c1C.F[B-](F)(F)F | 2.81 ± 0.24
CO [methanol] + CCC[n+]1ccn(C)c1C.F[B-](F)(F)F | 0.823 ± 0.069
CCCCCO [pentan-1-ol] + CCC[n+]1ccn(C)c1C.F[B-](F)(F)F | 5.31 ± 0.46
CCCCO [butan-1-ol] + CCC[n+]1ccn(C)c1C.F[B-](F)(F)F | 4.2 ± 0.36
C1CCOC1 [tetrahydrofuran] + CCC[n+]1ccn(C)c1C.F[B-](F)(F)F | 5.95 ± 0.51
CCC(C)O (stereo not drawn) [butan-2-ol] + CCC[n+]1ccn(C)c1C.F[B-](F)(F)F | 3.67 ± 0.32
CC(C)O [propan-2-ol] + CCC[n+]1ccn(C)c1C.F[B-](F)(F)F | 2.45 ± 0.21
ClCCl [dichloromethane] + CCC[n+]1ccn(C)c1C.F[B-](F)(F)F | 1.84 ± 0.16
CC(C)CCO [3-methylbutan-1-ol] + CCC[n+]1ccn(C)c1C.F[B-](F)(F)F | 4.46 ± 0.39
C1COCCO1 [1,4-dioxane] + CCC[n+]1ccn(C)c1C.F[B-](F)(F)F | 3.14 ± 0.27
CC(C)=O [acetone] + CCC[n+]1ccn(C)c1C.F[B-](F)(F)F | 2.55 ± 0.22
ClC(Cl)(Cl)Cl [tetrachloromethane] + CCC[n+]1ccn(C)c1C.F[B-](F)(F)F | 9.13 ± 0.79
ClC(Cl)Cl [trichloromethane] + CCC[n+]1ccn(C)c1C.F[B-](F)(F)F | 1.4 ± 0.12
CCOC(C)=O [ethyl acetate] + CCC[n+]1ccn(C)c1C.F[B-](F)(F)F | 8.79 ± 0.76
CCO [ethanol] + CCC[n+]1ccn(C)c1C.F[B-](F)(F)F | 1.6 ± 0.14
CC(C)CO [2-methyl-1-propanol] + CCC[n+]1ccn(C)c1C.F[B-](F)(F)F | 3.47 ± 0.3

same assay, conditions: 333.15 K; Liquid; Chromatography; x1 = 0

SMILES | activity coefficient
CC#N [acetonitrile] + CCC[n+]1ccn(C)c1C.F[B-](F)(F)F | 1.37 ± 0.12
CCCO [propan-1-ol] + CCC[n+]1ccn(C)c1C.F[B-](F)(F)F | 2.59 ± 0.22
CO [methanol] + CCC[n+]1ccn(C)c1C.F[B-](F)(F)F | 0.777 ± 0.065
CCCCCO [pentan-1-ol] + CCC[n+]1ccn(C)c1C.F[B-](F)(F)F | 4.65 ± 0.4
CCCCO [butan-1-ol] + CCC[n+]1ccn(C)c1C.F[B-](F)(F)F | 3.73 ± 0.32
C1CCOC1 [tetrahydrofuran] + CCC[n+]1ccn(C)c1C.F[B-](F)(F)F | 5.92 ± 0.51
CCC(C)O (stereo not drawn) [butan-2-ol] + CCC[n+]1ccn(C)c1C.F[B-](F)(F)F | 3.3 ± 0.28
CC(C)O [propan-2-ol] + CCC[n+]1ccn(C)c1C.F[B-](F)(F)F | 2.33 ± 0.2
ClCCl [dichloromethane] + CCC[n+]1ccn(C)c1C.F[B-](F)(F)F | 1.93 ± 0.17
